Measured values reported in patent publication US20190284129A1, “LIPID COMPOUNDS AND COMPOSITIONS AND THEIR OPTHALMIC USE” (BIOZEP AS, priority 2015, published 2019).

How the values were obtained:
Type in all cases: cell-based
neuroblastoma cells = assay: mitochondrial DNA damage in neuroblastoma cells (RT-qPCR, TaqI cleavage); settings: 10 μM compound, 24 hours, high glucose (20 mM); FIG. 3
Protocol: In this study, neuroblastoma cells were cultivated at near confluency (50-75%) in DMEM/F12/10% serum high glucose (20 mM) supplied with 10 μM BIZ-101 or BIZ-105 for 24 hours prior to analyses. These conditions readily induce mtDNA damage that is representative of that accumulating during aging as the result of age-associated oxidative stress.
For DNA damage analyses, cells were washed, and DNA isolated using Qiagen Blood&Tissue DNA isolation kit. DNA damage level was analyzed by a RT-qPCR method based on the ability of DNA lesions to inhibit restriction enzyme cleavage, as described previously (http://www.ncbi.nlm.nih.gov/pubmed/25631007) using primers 5′-[…]-3′ and 5′-[…]-3′ (sense and anti sense, respectively). Briefly, genomic DNA (6 ng) was treated with 1 U TaqI for 15 min at 65° C. DNA damage frequency was calculated as 2exp−(ctTaql−ctnt), where ctTaql and ctnt represent CT values of TaqI-treated and non-treated genomic DNA, respectively.

NF-κB pathway = assay: NF-κB luciferase reporter assay in NF-κB Reporter-HEK293 cells, TNFa stimulated; settings: FIG. 5
Source text: The NF-κB reporter (luc)-HEK293 cell line is designed for monitoring the nuclear factor Kappa B (NF-κB) signal transduction pathways. It contains a firefly luciferase gene driven by four copies of NF-κB response element located upstream of the minimal TATA promoter. After activation by pro-inflammatory cytokines or stimulants of lymphokine receptors, endogenous NF-κB transcription factors bind to the DNA response elements, inducing transcription of the luciferase reporter gene.
NF-κB Reporter-HEK293 cells were cultured in MEM medium with 10% FBS, 1% non-essential amino acids, 1 mM Na-pyruvate, 1% Penn-strep, and 100 µg/ml of Hygromycin B.
To perform the NF-κB luciferase reporter assay, NF-κB Reporter-HEK293 cells were seeded at 40,000 cells per well into white clear-bottom 96-well microplate in 45 μl of growth medium without Hygromycin B. Cells were incubated at 37° C. and 5% CO2 overnight to allow them to recover and reattach. The following day a series of dilutions of compounds were made in assay medium (MEM medium with 0.5% FBS, 1% non-essential amino acids, 1 mM Na-pyruvate, 1% Penn-strep). The medium was removed from the wells and 45 μl of diluted compound was added to the cells. Assay medium with DMSO was added to the untreated control wells and cell-free control wells. The final concentration of DMSO was 0.25%. The cells were incubated overnight at 37° C. in CO2 incubator. […]
After treatment, cells were then lysed and a luciferase assay was performed using the ONE-Step luciferase assay system. […] Luminescence was measured using a luminometer (BioTek Synergy™ 2 microplate reader).
Reporter assays were performed in triplicate at each concentration. The luminescence intensity data were analyzed using the computer software, Graphpad Prism. In the absence of the compound, the luminescence intensity (Lt) in each data set was defined as 100%. In the absence of cells, the luminescence intensity (Lb) in each data set was defined as 0%. The percent luminescence in the presence of each compound was calculated according to the following equation: % Luminescence=(L−Lb)/(Lt−Lb), where L=the luminescence intensity in the presence of the compound, Lb=the luminescence intensity in the absence of cells, and Lt=the luminescence intensity in the absence of the compound. The values of % luminescence versus a series of compound concentrations were then plotted using non-linear regression analysis of a Sigmoidal dose-response curve generated with the equation Y=B+(T B)/1+10^((Log EC50-X)×Hill Slope), where Y=percent luminescence, B=minimum percent luminescence, T=maximum percent luminescence, X=logarithm of compound and Hill Slope=slope factor or Hill coefficient. The IC50 value was determined by the concentration causing a half-maximal percent activity.

ARPE-19 cells = assay: oxidative stress (tert-butyl hydroperoxide) cytolysis assay in ARPE-19 retinal pigment epithelial cells
Protocol: In order to evaluate the potential of BIZ-101 to protective the eye from oxidative stress damage the compound was tested in a cell based assay. Oxidative stress was induced in an ARPE-19 cell line using tert-butyl hydroperoxide at different concentrations. The cellular viability was kinetically monitored and measured by analysing the plasma membrane integrity based on the incorporation of a non-permeant and fluorescent DNA intercalating agent that selectively stain cytolytic cells with comprised plasma membranes.
(§1) The ARPE-19 cell line was seeded and cultured in DMEM-F12 medium+10% SVF for 24 hrs in a 96 well plate. Cells were pre-treated or not with either fenofibric acid (25 μM) or compound BIZ-101 (10 μM) during this 24 hr period. After 24 hrs, the different concentrations of t-butyl hydroperoxide were added in the presence of a fluorescent DNA intercalating agent for the following monitoring. Live content time-lapse imaging was performed with a sampling rate of 1 image every 2 hr over a 96 hrs period. The number of fluorescent/cytolytic cells were counted and reported during the experiment. The treatment conditions were tested in one experiment session in a triplicate format.
Fenofibric acid was used at 25 μM and was ordered from Sigma Aldrich. The day of the pre-treatment, a 25 mM stock solution of fenofibric acid was prepared in DMSO and diluted in the complete culture medium at 25 μM. 100 μL of this solution or 100 μL of complete culture medium+0.1% DMSO replaced the 100 μL of the complete culture medium already present in the well. The day of the treatment with t-butyl hydroperoxide, a 2 times concentrated solution of fenofibric acid was freshly diluted in the complete culture medium and 50 μL of this solution or 50 μL of complete culture medium+0.2% DMSO were added to the 100 μL of the culture medium already present in the well.
Compound BIZ-101 was tested at a final concentration of 10 μM. A 10 mM predilution was prepared in DMSO from a 10 mM stock solution. The 10 mM solution of BIZ 101 was diluted in the complete culture medium at 10 μM. 100 μL, of this solution or 100 μL of the complete culture medium+0.1% DMSO replaced the 100 μL, of the complete culture medium already present in the well. The day of the treatment with t-butyl hydroperoxide, a 2 times concentrated solution of BIZ 101 was freshly diluted in the complete culture medium and 50 μL of this solution or 50 μL of complete culture medium+0.2% DMSO were added to the 100 μL of the culture medium already present in the well.
Preparation of the tert-butyl hydroperoxide [tBHP] solution: 0, 0.01 mM, 0.03 mM, 0.1 mM, 0.3 mM, 1 mM, 3 mM and 10 mM. A 4 times concentrated solution of tBHP was freshly diluted in the complete culture medium for each of the concentrations to be tested. 50 μL of the 4 times concentrated solution was added to the 150 μL of the cultured medium.
In order to evaluate the potential of BIZ-102 to protect the eye from oxidative stress damage the compound was tested in a cell based assay similar to Example 24 with the following changes. The oxidative stress in the ARPE-19 cell line was induced by using 3 different concentrations of tBHP: 10 μM, 30 μM and 100 μM and BIZ-102 was tested in 2 different concentrations: 1 μM and 10 μM.
as §1, with “with” for “with either fenofibric acid (25 μM) or”, “BIZ-102 (1 μM and 10” for “BIZ-101 (10”
Compound BIZ-102 was tested at a final concentration of 1 and 10 μM. […]

human PPARα = target: T1, human PPARα (Homo sapiens, UniProt Q07869); assay: stable reporter HeLa cell line, GAL4-PPARα ligand activity; settings: 5 μM compound, relative to 1 μM GW7647; FIG. 6
T1 construct: expressed in transfected cells
T1 sequence (Q07869 239-466 limits assumed): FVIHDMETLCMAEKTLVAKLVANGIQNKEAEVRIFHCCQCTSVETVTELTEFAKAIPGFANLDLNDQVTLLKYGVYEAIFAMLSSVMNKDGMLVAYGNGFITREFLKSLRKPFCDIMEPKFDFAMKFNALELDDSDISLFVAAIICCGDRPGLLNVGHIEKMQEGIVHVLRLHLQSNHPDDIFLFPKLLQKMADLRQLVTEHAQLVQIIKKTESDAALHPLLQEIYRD
Source text: (§2) To screen the human PPARα, PPARδ and PPARγ ligand activity of the compounds a stable reporter cell line was used (HeLa cell line). The stable reporter cell line express respectively a chimeric protein containing the ligand binding domain (LBD) of human PPARα, human PPARδ and human PPARγ fused to the yeast transactivator GAL4 DNA binding domain (DBD). The luciferase (Luc) reporter gene is driven by a pentamer of the GAL4 recognition sequence in front of a β-globin promoter. The use of GAL4-PPARα, GAL4-PPARδ and GAL4-PPARγ chimeric receptors allows for elimination of background activity from endogenous receptors and quantification of relative activity across the three PPAR subtypes with the same reporter gene. […] Luciferase activity was measured by a luminometer and luciferase activity was expressed as relative light units (RLU).
Day 1: Seed 96—well plate with PPAR cells. Cell appearance was checked using optical microscopy. Cells were cultivated at confluency (80-100%).
Day 2: The test articles dissolved in DMSO were added to the cells. The controls (positive controls and the solvent control) were included in each individual plate. […]
Day 3: To determine the PPAR subtype activity of the tested compounds, the percentage of PPAR ligand activity was calculated for each tested compound as follows: […]

human PPARγ = target: T2, human PPARγ (Homo sapiens, UniProt P37231); assay: stable reporter HeLa cell line, GAL4-PPARγ ligand activity; settings: 5 μM compound, relative to 1 μM BRL49653; FIG. 7
T2 construct: expressed in transfected cells
T2 sequence (P37231 238-503 limits assumed): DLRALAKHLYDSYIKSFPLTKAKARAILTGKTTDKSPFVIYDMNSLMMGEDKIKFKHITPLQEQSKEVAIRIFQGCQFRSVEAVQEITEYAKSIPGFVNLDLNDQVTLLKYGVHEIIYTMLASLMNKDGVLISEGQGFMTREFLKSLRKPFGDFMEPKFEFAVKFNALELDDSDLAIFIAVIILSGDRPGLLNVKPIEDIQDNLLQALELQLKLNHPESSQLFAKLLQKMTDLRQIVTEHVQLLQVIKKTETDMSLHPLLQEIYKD
Source text: as §2
Day 1: Seed 96—well plate with PPAR cells. Cell appearance was checked using optical microscopy. Cells were cultivated at confluency (80-100%). […]
Day 3: To determine the PPAR subtype activity of the tested compounds, the percentage of PPAR ligand activity was calculated for each tested compound as follows:
Percentage of PPARγ activity for the tested compound in 5 μM concentration=(RLUXcomp×100)/RLUBRL49653 where RLUBRL49653 is the luminescence measured from PPARγ cells incubated with 1 μM […] and expressed as Relative Light Units. […]

Structure (SMILES)	mtDNA damage (neuroblastoma cells)	dose dependence of inhibitory effect on the NF-κB pathway (NF-κB pathway)	complete inhibition of the NF-κB pathway (NF-κB pathway; at high concentration)	dose dependent cytotoxicity of tBHP (ARPE-19 cells; 6 hrs after addition of tBHP, 24 hr pre-treatment, fenofibric acid 25 μM, BIZ-101 10 μM)	protective effects against tBHP cytotoxicity (ARPE-19 cells; 24 hrs after addition of t-BHP, fenofibric acid 25 μM, BIZ-101 10 μM)	protective effect compared with fenofibric acid (ARPE-19 cells; BIZ-101 10 μM vs fenofibric acid 25 μM)	effect on retinal pigment epithelial cells during conditions of oxidative stress (ARPE-19 cells; overall conclusion)	PPARα activity (human PPARα)	PPARγ activation (human PPARγ)
CC/C=C\C/C=C\C/C=C\C/C=C\C/C=C\CCC(CC)C(=O)O (stereo not shown) [BIZ-101, 2-ethyleicosa-(all-Z)-5,8,11,14,17-pentaenoic Acid]	reduced mtDNA damage	dose dependent	completely inhibited	slightly decreased	more efficient	much more potent	protective effect		
CC/C=C\C/C=C\C/C=C\C/C=C\C/C=C\C/C=C\CC(C)C(=O)O (stereo not shown) [BIZ-105, 2-methyldocosa-(all-Z)-4,7,10,13,16,19-hexaenoic Acid]	slightly reduced level of mtDNA damage								
CC/C=C\C/C=C\C/C=C\C/C=C\C/C=C\CCOCC(=O)O [BIZ-108, 3-oxa-(6Z,9Z,12Z,15Z,18Z)-heneicosa-(6,9,12,15,18)-pentaenoic Acid]								all compounds except BIZ-108 had potent activity	activated PPARγ except for the unsubstituted derivative BIZ-108
